Measurements published in US20050038015A1, “Partial dopamine-D 2 receptor agonist plus serotonin and/oder noradrenaline inhibitor activity” (priority 2002, published 2005).
Read-outs that look alike come from different tables or passages of the source.

Experiments:
[1] = test system: noradrenaline levels in the prefrontal cortex; test: In vivo microdialysis, dialysate noradrenaline; details: awake freely moving rat, p.o. or i.p. (italic)
Method: (§1) Microdialysis allows an insight into changes in neurotransmitters and their metabolites in the brain extracellular space in discrete brain regions in awake freely moving animals. […] The in vivo effects of the (mixtures of) compounds of the invention on dopamine, serotonin and noradrenalin levels were determined by microdialysis according to the protocol given below:
(§2) Dopamine and Serotonin Measurements by In Vivo Microdialysis
(§3) Surgery. […] Antibacterial agents and analgesics were administered prior to (Baytril (150 μl/rat i.m.)) and after (Temgesic (0.005-0.01 mg/kg i.m. non-diluted/rat)) surgery. […] In other animals, the skull is exposed and a 1 mm bore-hole is drilled through the bone above the prefrontal cortex (co-ordinates from bregma (mm): anterior-posterior +3.2, mediolateral 0.6 and dorsoventral −1.5 at a 0° angle (from dura)) in those animals where determination of dialysate noradrenaline levels is required. Smaller bore holes are made and three screws are inserted within the skull. The intracerebral guide cannula (CMA, Carnegie) is lowered through the hole until the tip is immediately above the nucleus accumbens or prefrontal cortex. The guide together with the screws are cemented onto the bone with dental cement and the surrounding skin sutured. Animals are allowed to recover at least six days prior to microdialysis experimentation.
Microdialysis experimentation. On the day of the experiment microdialysis probes (CMA 12, 0.5 mm outer diameter, Stockholm, Sweden) are inserted through the guide cannula into the nucleus accumbens (2 mm membrane length) or prefrontal cortex (4 mm membrane length). The Inlet of the probe is connected with low volume tubing (F.E.B-tubing, 1.2 μl/10 cm, Carnegie) via a liquid-swivel (dual channel; Instech, UK) on a counterbalanced arm, to a syringe-pump (Harvard, 10 channel). […] The outlet of the probe is connected with low volume tubing via the liquid swivel to a CMA 140 fraction collector. […]
Analysis of dialysate dopamine and serotonin. […] Dopamine and serotonin are electrochemically detected with an EG&G (model 400, Princeton Applied Research) controller equipped with a glassy carbon working electrode (VT-03; Antec, Leiden, the Netherlands). […] The output is recorded on a computer equipped with Hyperchem™ (Hewlett-Packard Inc.) which measures peak height values. Calculations (μg/20 min) are made using peak height values of analysed standard solutions containing known amounts of dopamine and serotonin. […] The compounds are electrochemically detected with an EG&G (model 400, Princeton Applied Research) controller equipped with a glassy carbon working electrode (VT-03; Antec, Leiden, the Netherlands). […]

[2] = test system: dialysate serotonin in the nucleus accumbens; test: In vivo microdialysis, dialysate serotonin; details: awake freely moving rat; for ED150: p.o. or i.p. (italic); for [serotonin] ED75 (footnote 1): footnote 1: ED75 instead of ED150
Method: as §1, §2, §3
(§4) Microdialysis experimentation. On the day of the experiment microdialysis probes (CMA 12, 0.5 mm outer diameter, Stockholm, Sweden) are inserted through the guide cannula into the nucleus accumbens (2 mm membrane length) or prefrontal cortex (4 mm membrane length). The Inlet of the probe is connected with low volume tubing (F.E.B-tubing, 1.2 μl/10 cm, Carnegie) via a liquid-swivel (dual channel; Instech, UK) on a counterbalanced arm, to a syringe-pump (Harvard, 10 channel). […] The outlet of the probe is connected with low volume tubing via the liquid swivel to a CMA 140 fraction collector. The tubing is supported by a stainless steel wire which leads from the swivel down to a clip, which fits to a collar around the neck of an animal. […] Samples are collected at a flow rate of 2 μl/min at 20 min intervals (40 μl volume) in vials containing 50 μl of a HCOOH/cysteine solution (0.02M/0.2 w/v %) to prevent oxidation of the compounds. Following a baseline period of 5 samples, drugs are administered systemically and at least a further 8 samples collected. All samples were stored post-collection on dry ice and frozen at […] prior to analysis by high-performance liquid chromatography (HPLC) coupled to electrochemical detection described below.
(§5) Analysis of dialysate dopamine and serotonin. […] The final pH was adjusted to 4.9 with 1N NaOH. Dopamine and serotonin are electrochemically detected with an EG&G (model 400, Princeton Applied Research) controller equipped with a glassy carbon working electrode (VT-03; Antec, Leiden, the Netherlands). The potential is set at 600 mV versus an Ag/AgCl reference electrode. The output is recorded on a computer equipped with Hyperchem™ (Hewlett-Packard Inc.) which measures peak height values. Calculations (μg/20 min) are made using peak height values of analysed standard solutions containing known amounts of dopamine and serotonin. Analysis of dialysate dopamine and noradrenaline. […] The basal mobile phase consists of: 50 mM NaAc, and 0.27 mM EDTA. The final concentration of 1-octanesulfonic acid (NOS) and methanol, as well as the final pH (adjusted with HAc), vary with the different brain areas under examination. The compounds are electrochemically detected with an EG&G (model 400, Princeton Applied Research) controller equipped with a glassy carbon working electrode (VT-03; Antec, Leiden, the Netherlands). The potential is set at 450 mV versus a Hyref reference electrode.

[3] = target: human dopamine D2,L receptors (Homo sapiens, UniProt P14416); test: Inhibition of forskolin-induced [3H]-cAMP accumulation in CHO-K1 cells
[4] = test system: dialysate dopamine in the nucleus accumbens; test: In vivo microdialysis, dialysate dopamine; design: species or system rat; details: read-out: [dopamine] ED75
Method: as §1, §2, §3, §4, §5

serotonin reuptake sites = target: T1, serotonin reuptake sites (Rattus norvegicus, UniProt P31652); test: In vitro functional inhibition of [3H]-serotonin reuptake in rat brain synaptosomes; assay type: biochemical
T1 construct: the cerebral hemispheres were rapidly removed and a P2-synaptosomal fraction was prepared; from tissue; host or cells: rat (Wistar) cerebral hemispheres, P2-synaptosomal fraction
Method: (§6) The in vitro functional activity at dopamine-D2 receptors, Including the intrinsic activity (ε) of the compounds which can be used according to the invention as well as relevant reference compounds was measured by their ability to inhibit forskolin-induced [^3H]cAMP accumulation. Serotonin and noradrenaline reuptake inhibitory activity was measured In rat brain synaptosomes.
In Vitro Functional Inhibition of [^3H]-serotonin Reuptake
Synaptosomes were pre-incubated in absence or presence of the test compound for 15 min at 37° C., in a medium containing the monoamine oxidase inhibitor pargyline (7 μM). Subsequently, the synaptosomes were exposed to [^3H]-serotonin ([…] final concentration) for 10 min.
(§7) [^3H]-serotonine uptake was stopped by filtration with a harvester and the non-incorporated radioactivity was removed by an extensive washing programme. The filter plates with synaptosomes were dehydrated and the amount of [^3H]-serotonin present was determined by Betaplate liquid scintillation counting.

[5] = target: noradrenaline reuptake sites (Rattus norvegicus, UniProt Q9WTR4); test: In vitro functional inhibition of [3H]-noradrenalin reuptake in rat hypothalamus synaptosomes; assay type: biochemical
Method: as §6
Synaptosomes were pre-incubated in absence or presence of the test compound for 10 min at 37° C., in a medium containing the monoamine oxidase inhibitor pargyline (7 μM). Subsequently, the synaptosomes were exposed to [^3H]-noradrenaline ([…] final concentration) for 15 min.
as §7, with “[^3H]-noradrenaline” for “[^3H]-serotonine”, “[^3H]-noradrenaline” for “[^3H]-serotonin”

[6] = nucleus accumbens, awake freely moving rat, p.o. or i.p. (italic)
[7] = rat brain synaptosomes, read-out: 5-HT uptake pIC50 (converted)
[8] = fraction of full agonism (ε = 1, quinpirole)

Sequence of human dopamine D2,L receptors (P14416 whole entry): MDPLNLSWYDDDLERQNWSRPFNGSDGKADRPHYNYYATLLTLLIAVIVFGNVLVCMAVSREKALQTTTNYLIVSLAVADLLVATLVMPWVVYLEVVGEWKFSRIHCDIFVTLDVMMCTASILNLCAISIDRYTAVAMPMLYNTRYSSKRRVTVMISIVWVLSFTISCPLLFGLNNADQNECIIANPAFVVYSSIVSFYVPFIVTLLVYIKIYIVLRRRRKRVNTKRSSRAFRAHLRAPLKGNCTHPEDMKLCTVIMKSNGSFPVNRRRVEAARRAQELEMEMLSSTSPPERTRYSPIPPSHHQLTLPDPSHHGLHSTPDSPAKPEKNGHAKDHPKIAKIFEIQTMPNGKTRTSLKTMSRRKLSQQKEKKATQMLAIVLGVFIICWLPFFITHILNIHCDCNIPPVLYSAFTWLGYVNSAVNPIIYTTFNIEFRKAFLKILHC
T1 sequence (P31652 whole entry): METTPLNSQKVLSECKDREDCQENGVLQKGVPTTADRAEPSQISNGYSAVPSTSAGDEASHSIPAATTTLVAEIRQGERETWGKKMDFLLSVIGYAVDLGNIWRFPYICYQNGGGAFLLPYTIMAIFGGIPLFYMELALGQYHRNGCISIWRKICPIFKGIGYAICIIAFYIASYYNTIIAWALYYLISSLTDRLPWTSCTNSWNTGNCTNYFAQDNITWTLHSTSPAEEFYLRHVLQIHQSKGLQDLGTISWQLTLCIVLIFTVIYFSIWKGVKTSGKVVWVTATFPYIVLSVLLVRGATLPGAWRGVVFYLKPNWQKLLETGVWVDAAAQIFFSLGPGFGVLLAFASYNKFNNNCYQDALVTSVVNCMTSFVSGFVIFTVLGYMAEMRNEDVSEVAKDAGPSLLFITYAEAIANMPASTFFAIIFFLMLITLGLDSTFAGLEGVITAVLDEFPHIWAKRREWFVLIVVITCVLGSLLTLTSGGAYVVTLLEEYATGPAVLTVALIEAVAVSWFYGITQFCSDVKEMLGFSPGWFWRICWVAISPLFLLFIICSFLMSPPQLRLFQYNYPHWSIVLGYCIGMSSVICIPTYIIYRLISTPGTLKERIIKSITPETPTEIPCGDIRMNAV

| IC50 (serotonin reuptake sites; [7]) [nM] | NA uptake pIC50 ([5]; rat hypothalamus synaptosomes) | cAMP accum. ε (intrinsic activity) [3, 8] | Structure (SMILES) | ED150 [2] [mg/kg] | EC50 [3] [nM] | cAMP accum. ε (intrinsic activity) [3] | ED75 [4, 6] [mg/kg] | further results |
| --- | --- | --- | --- | --- | --- | --- | --- | --- |
|  |  |  | CNCCCN1c2ccccc2CCc2ccccc21 [DMI] | > 3 | > 1000 | 0.12 | > 3 | [noradren] ED150 [1]: 1.64 mg/kg |
| 126 | <5.0 | 0.27 | Cn1cc(CCCN2CCN(c3cccc4[nH]c(=O)oc34)CC2)c2cc(F)ccc21 [example 1a] | 2.52 | > 1000 |  | 8.14 |  |
| > 10000 | 5.2 | 0.27 | O=c1[nH]c2cccc(N3CCN(CCCc4cn5c6c(cc(F)cc46)CCC5)CC3)c2o1 [example 1b] |  |  |  |  |  |
| 25.1 | <5.0 | 0.53 | O=c1[nH]c2cccc(N3CCN(CCCc4c[nH]c5ccc(F)cc45)CC3)c2o1 [example 1c] | 14.8 | 158 |  | 3.92 |  |
| 398 | <5.0 | 0.56 | Cc1cccc2c(CCCN3CCN(c4cccc5[nH]c(=O)oc45)CC3)c[nH]c12 [example 1d] |  | < 1 |  |  |  |
| 251 | <5.0 | 0.60 | O=c1[nH]c2cccc(N3CCN(CCCc4c[nH]c5ccccc45)CC3)c2o1 [example 1e] |  | < 1 |  |  |  |
|  | 5.3 | 0.10 | COCCCC/C(=N\OCCN)c1ccc(C(F)(F)F)cc1 [fluvoxamine] |  | > 1000 |  |  |  |
|  |  |  | CCN(CC)C(=O)C1(c2ccccc2)CC1CN (stereo not drawn) [milnacipran] | 5.5 | > 1000 | 0.21 | > 30 | [noradren] ED150 [1]: 2.41 mg/kg; IC50 (serotonin reuptake sites): 251 nM; NA uptake pIC50 [5]: 5.5 |
|  |  |  | Fc1ccc([C@@H]2CCNC[C@H]2COc2ccc3c(c2)OCO3)cc1 [paroxetine] | < 10 | > 1000 | 0.36 | > 10 | NA uptake pIC50 [5]: <5.0 |
| > 10000 | 5.3 | 0.36 | CCCN1CCC[C@@H](c2cccc(O)c2)C1 [preclamol] | > 30 |  |  | 14.5 |  |
|  |  |  | CCCN1CCC[C@@H]2Cc3n[nH]cc3C[C@H]21 [quinpirole] | > 3 |  |  | 0.04 |  |
|  |  |  | CCOc1ccccc1OC(c1ccccc1)C1CNCCO1 (stereo not drawn) [reboxetine] | > 3 |  |  | > 3 | [noradren] ED150 [1]: <3.0 mg/kg |
|  |  |  | C=CCN1CCc2nc(N)sc2CC1 [talipexole] | > 10 | 39.8 | 1.00 | < 0.1 | IC50 (serotonin reuptake sites): > 10000 nM; agonist properties at human dopamine D2 receptors (FIG. 2 upper panel) [3]: full agonists; NA uptake pIC50 [5]: <5.0 |
| > 10000 | <5.0 | 0.38 | CCN(CC)C(=O)N[C@H]1C[C@@H]2c3cccc4[nH]cc(c34)C[C@H]2N(C)C1 [terguride] | > 10 | 0.398 |  | > 10 | agonist properties at human dopamine D2 receptors (FIG. 2 upper panel) ([3]; agonist mode): partial agonists; antagonist effects against the reference agonist quinpirole (FIG. 2 lower panel) ([3]; antagonist mode versus quinpirole): partial antagonists |

| Structure (SMILES) | IC50 (serotonin reuptake sites; [7]) [nM] | NA uptake pIC50 ([5]; rat hypothalamus synaptosomes) | cAMP accum. ε (intrinsic activity) [3, 8] | ED150 [2] [mg/kg] | EC50 [3] [nM] | cAMP accum. ε (intrinsic activity) [3] | ED75 [4, 6] [mg/kg] | further results |
| --- | --- | --- | --- | --- | --- | --- | --- | --- |
| CN1CCN(c2cccc3[nH]c(=O)oc23)CC1 [SLV 308] | > 10000 | <5.0 |  |  | 31.6 |  | 0.04 | [noradren] ED150 [1]: 0.53 mg/kg; [serotonin] ED75 (footnote 1) [2]: 0.45^1 mg/kg; EC50 ([3]; pEC50 (inhibition of cAMP formation)): 10 nM |
| O=c1[nH]c2cccc(N3CCN(Cc4cccc(-c5ccccc5)c4)CC3)c2o1 [bifeprunox] | 15800 | 4.6 |  |  | 15.8 | 0.20 |  | [serotonin] ED75 (footnote 1) [2]: >10^1 mg/kg; ED75 ([4]; Rattus norvegicus): > 10 mg/kg |
